This is an account of results in patent US5877013A, “Rhodosporidium D-amino acid oxidase” (Food Industry Research and Development Institute, priority 1997, dated 1999).

The target in data set [1] is T1, R. toruloides DAO (Rhodotorula toruloides, UniProt P80324).
T1 sequence (P80324 25-368): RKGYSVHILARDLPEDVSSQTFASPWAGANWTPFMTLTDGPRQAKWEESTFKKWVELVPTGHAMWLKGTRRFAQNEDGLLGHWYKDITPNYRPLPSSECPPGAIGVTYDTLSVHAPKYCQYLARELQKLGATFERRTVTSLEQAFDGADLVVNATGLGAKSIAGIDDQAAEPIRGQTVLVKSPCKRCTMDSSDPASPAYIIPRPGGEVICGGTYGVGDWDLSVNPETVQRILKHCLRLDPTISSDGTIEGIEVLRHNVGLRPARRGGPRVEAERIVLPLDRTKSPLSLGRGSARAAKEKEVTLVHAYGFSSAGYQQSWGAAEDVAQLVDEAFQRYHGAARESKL
In words: activity of purified DAO on amino acid substrates and Ceph C (relative activity, apparent Km). As to conditions: for relative activity of the purified DAO on substrate / activity of the purified DAO on substrate: purified R. toruloides DAO. In kind it is biochemical. The arrangement: made in house; host or cells: R. toruloides cells (native source, not recombinant).

Data set [2] deals with T1, R. toruloides DAO.
Data set [3] deals with T1, R. toruloides DAO. The data set can be described thus: biochemical.
Substrate in data set [4]: CSCC[C@@H](N)C(=O)O
The data set can be described thus: purified protein, by the assay type. The following applies: other: purified R. toruloides DAO.

Substrate in data set [5]: C[C@@H](N)C(=O)O
In words: purified protein, by the assay type. The following applies: other: purified R. toruloides DAO.

Substrate in data set [6]: N[C@H](CO)C(=O)O
In words: purified protein, by the assay type. The following applies: other: purified R. toruloides DAO. The data set is classed as biochemical.

Substrate in data set [7]: N[C@H](Cc1c[nH]c2ccccc12)C(=O)O
In words: purified protein, by the assay type. The data set is classed as biochemical. The following applies: other: purified R. toruloides DAO.

Substrate in data set [8]: [H][C@]12SCC(COC(C)=O)=C(C(=O)O)N1C(=O)[C@H]2NC(=O)CCC[C@@H](N)C(=O)O
In words: purified protein, by the assay type. The data set is classed as biochemical. As to conditions: other: purified R. toruloides DAO.

Bounds are passed on as bounds.

As for `CC(=O)OCC1=C(C(=O)O)N2C(=O)[C@@H](NC(=O)CCC[C@@H](N)C(=O)O)[C@H]2SC1` [Ceph C, cephalosporin C], the “activity on Ceph C as compared with activity against D-alanine” value at R. toruloides DAO [1] (purified DAO, SEQ ID NO: 3) stood at 95%. On to `N[C@H](CC(=O)O)C(=O)O` [D-aspartic acid], for which the “relative activity of the purified DAO on substrate” value on R. toruloides DAO [1] is reported as < 20 % of maximal. The same measure, in the same setting: then `N[C@H](CCC(=O)O)C(=O)O` [D-glutamic acid], with < 20 % of maximal; and `NCCCC[C@@H](N)C(=O)O` [D-lysine], with < 20 % of maximal. The same measure, in the same setting: then `C[C@H](O)[C@@H](N)C(=O)O` [D-threonine], with < 20 % of maximal. For `N[C@H](Cc1c[nH]c2ccccc12)C(=O)O` [D-tryptophan], on R. toruloides DAO [1], the “activity of the purified DAO on substrate” value was “best substrate”. Still for that read-out and setting: then `C[C@H](N)C(=O)O` [L-alanine], with “No activity”; and `CSCC[C@H](N)C(=O)O` [L-methionine], with “No activity”. `N[C@@H](Cc1ccccc1)C(=O)O` [L-phenylalanine]: the “activity of the purified DAO on substrate” value on R. toruloides DAO [1] was “No activity”. `O=C(O)[C@@H]1CCCN1` [L-proline]: the “activity of the purified DAO on substrate” value on R. toruloides DAO [1] is “No activity”. On to `O=C(O)c1ccccc1` [benzoic acid], for which the “enzyme inhibited in the presence of aromatic acid” value (shortened to “enzyme inhibited in the presence”) on R. toruloides DAO [2] came to 49%. Regarding `O=C(O)c1cccnc1` [nicotinic acid], the “enzyme inhibited in the presence” value on R. toruloides DAO [2] amounted to 21%.

A word on the Ki: it is the dissociation constant of the complex between target and ligand, obtained from inhibition or displacement. A high value points to lower affinity. On to `Nc1ccc(C(=O)O)cc1` [p-aminobenzoic acid], for which, on R. toruloides DAO [2], the “enzyme inhibited in the presence” value came out at 72%. At R. toruloides DAO [3], this molecule came in with an inhibition constant (Ki) of 300 µM.

B1: R. toruloides DAO (Rhodotorula toruloides) (protein)
chain: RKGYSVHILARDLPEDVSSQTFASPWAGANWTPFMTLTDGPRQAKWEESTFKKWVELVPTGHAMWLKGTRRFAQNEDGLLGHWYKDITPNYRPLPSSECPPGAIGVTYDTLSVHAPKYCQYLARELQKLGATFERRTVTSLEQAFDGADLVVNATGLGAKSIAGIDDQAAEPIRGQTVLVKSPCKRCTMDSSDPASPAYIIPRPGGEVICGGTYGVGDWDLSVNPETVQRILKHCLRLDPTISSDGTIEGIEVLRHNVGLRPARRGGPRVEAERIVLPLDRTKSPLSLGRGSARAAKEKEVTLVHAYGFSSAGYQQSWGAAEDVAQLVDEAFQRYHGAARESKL
notes: made in house; host or cells: R. toruloides cells (native source, not recombinant)
One may read the Km as the substrate concentration at which the rate is half of its maximum. B1: the Michaelis-Menten constant (Km) in data set [4] was found to be 220 µM; in data set [5], 680 µM; in data set [6], 3400 µM; in data set [7], 180 µM; in data set [8] it was 650 µM.
